# Entries after “also recorded” stand apart in the source; their conditions may differ. Like-named read-outs stand apart in the source and are kept apart here.
# How the values were obtained:
# [1] = for mean AUCmetabolite/AUCparent ratio, fold higher in CYP3A5 expressors than nonexpressors: blood, after oral tacrolimus; for CLurinary (based on AUCblood) / CLurinary (based on AUCplasma): 0 to 96-hour collection; for total amount of tacrolimus excreted in urine as unchanged drug over 96 hours: oral administration
# [2] = test system: mouse mixed lymphocyte reaction; conditions: compared with tacrolimus; cited from earlier work
# [3] = biological target: CYP3A5 (Homo sapiens, UniProt P20815); assay: Metabolic clearance by CYP3A5; conditions: compared with tacrolimus; Supplemental Figure 1
# CYP3A5 (Homo sapiens, UniProt P20815), sequence (P20815 whole entry, the tested form may be a part): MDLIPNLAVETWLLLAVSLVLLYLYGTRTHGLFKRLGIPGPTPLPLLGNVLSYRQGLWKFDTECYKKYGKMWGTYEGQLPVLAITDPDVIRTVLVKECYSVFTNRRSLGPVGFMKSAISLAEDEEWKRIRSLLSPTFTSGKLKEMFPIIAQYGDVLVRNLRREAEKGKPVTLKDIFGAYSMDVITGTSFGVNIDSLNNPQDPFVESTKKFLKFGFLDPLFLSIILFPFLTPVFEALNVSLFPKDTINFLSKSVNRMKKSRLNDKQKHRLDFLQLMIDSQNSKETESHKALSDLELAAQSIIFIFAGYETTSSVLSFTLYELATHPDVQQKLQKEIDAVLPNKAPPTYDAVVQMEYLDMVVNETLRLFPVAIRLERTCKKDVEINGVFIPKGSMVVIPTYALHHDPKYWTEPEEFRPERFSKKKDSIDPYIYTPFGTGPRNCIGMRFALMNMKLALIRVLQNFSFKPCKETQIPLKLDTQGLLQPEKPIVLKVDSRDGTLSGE
# [4] = isolated perfused rat kidney; cited from earlier work
# [5] = test system: CYP3A5; conditions: cited from earlier work
# [6] = design: species or system human; conditions: for k(2,1) (glomerular filtration of tacrolimus) / k(3,1) (secretion from efferent arteriole to renal epithelium): derived from estimated parameters; for fub (exchangeable fraction of tacrolimus in blood during glomerular filtration): ordinary least-squares estimation; for Kp: human, kidney/blood, oral, 5 mg, Kp,kidney (apparent tissue-to-blood partitioning coefficient), empirical Bayesian estimation
# [7] = In vitro unbound fraction of tacrolimus in plasma and whole blood; type: in vitro ADME; conditions: whole blood
# [8] = male rats, tacrolimus orally for four days; cited from earlier work
# [9] = clinical; conditions: human, 5 mg; for half-life: blood, po, single oral dose 5 mg; for concentration at 96 h: whole blood, oral, Clast, blood concentration at 96 hour
compound,measurement,setting,value
"C=CCC1C=C(C)CC(C)CC(OC)C2OC(O)(C(=O)C(=O)N3CCCCC3C(=O)OC(C(C)=CC3CCC(O)C(OC)C3)C(C)C(O)CC1=O)C(C)CC2O (centres unmarked) [13-DMT, 13-O-desmethyl tacrolimus]","mean AUCmetabolite/AUCparent ratio, fold higher in CYP3A5 expressors than nonexpressors",[1],2.0 fold
"C=CCC1C=C(C)CC(C)CC(O)C2OC(O)(C(=O)C(=O)N3CCCCC3C(=O)OC(C(C)=CC3CCC(O)C(OC)C3)C(C)C(O)CC1=O)C(C)CC2OC (centres unmarked) [15-DMT, 15-O-desmethyl tacrolimus]",renal excretion in the two genotyped groups,[1]; CYP3A5 expressors vs nonexpressors,similar
same,"mean AUCmetabolite/AUCparent ratio, fold higher in CYP3A5 expressors than nonexpressors",[1],did not differ; also recorded: similar
"C=CCC1C=C(C)CC(C)CC(OC)C2OC(O)(C(=O)C(=O)N3CCCCC3C(=O)OC(C(C)=CC3CCC(O)C(O)C3)C(C)C(O)CC1=O)C(C)CC2OC (centres unmarked) [31-DMT, 31-O-desmethyl tacrolimus]","mean AUCmetabolite/AUCparent ratio, fold higher in CYP3A5 expressors than nonexpressors",[1],2.5 fold
same,immunosuppressive activity,[2],same immunosuppressive activity as tacrolimus
same,metabolic clearance by CYP3A5,[3],comparable to that of tacrolimus
CCOC(=O)[C@H](CCc1ccccc1)N[C@@H](C)C(=O)N1CCC[C@H]1C(=O)O [enalapril],urinary clearance following inhibition of hydrolysis to enalaprilate by paraoxon,[4],increased
Cc1ncc2n1-c1ccc(Cl)cc1C(c1ccccc1F)=NC2 [midazolam],"hydroxylation activity, fold higher in CYP3A5*1/*3 than CYP3A5*3/*3 kidney microsomes",[5],18 fold
C=CC[C@@H]1/C=C(\C)C[C@H](C)C[C@H](OC)[C@H]2O[C@@](O)(C(=O)C(=O)N3CCCC[C@H]3C(=O)O[C@H](/C(C)=C/[C@@H]3CC[C@@H](O)[C@H](OC)C3)[C@H](C)[C@@H](O)CC1=O)[C@H](C)C[C@@H]2OC [tacrolimus],ER greater than fub′,[6],~ 400 fold
same,ER (extraction ratio of tacrolimus from the efferent arteriole),[6]; CYP3A5 expressors,5.1 ± 3.0%
same,"k(0,3) (rate constant, CYP3A5-mediated intra-epithelial metabolism)",[6]; CYP3A5 expressors,0.55 ± 0.52 h⁻¹
same,"k(1,3) (back flux from renal epithelium to efferent arteriole)",[6]; CYP3A5 expressors,0.34 ± 0.05 h⁻¹
same,"k(2,3) (secretion from renal epithelium to tubular lumen)",[6]; CYP3A5 expressors,0.0009 ± 0.0005 h⁻¹
same,"k(3,2) (reabsorption from tubular fluid back to renal epithelium)",[6]; CYP3A5 expressors,0.091 ± 0.063 h⁻¹
same,"k(2,1) (glomerular filtration of tacrolimus)",[6]; CYP3A5 expressors,0.94 ± 0.76 mL/h
same,"k(3,1) (secretion from efferent arteriole to renal epithelium)",[6]; CYP3A5 expressors,2368 ± 1404 mL/h
same,fub (exchangeable fraction of tacrolimus in blood during glomerular filtration),[6]; CYP3A5 expressors,0.014 ± 0.015%
same,ER (extraction ratio of tacrolimus from the efferent arteriole),[6]; CYP3A5 nonexpressors,4.3 ± 4.7%
same,"k(1,3) (back flux from renal epithelium to efferent arteriole)",[6]; CYP3A5 nonexpressors,0.36 ± 0.39 h⁻¹
same,"k(2,3) (secretion from renal epithelium to tubular lumen)",[6]; CYP3A5 nonexpressors,0.0012 ± 0.0008 h⁻¹
same,"k(3,2) (reabsorption from tubular fluid back to renal epithelium)",[6]; CYP3A5 nonexpressors,0.106 ± 0.057 h⁻¹
same,"k(2,1) (glomerular filtration of tacrolimus)",[6]; CYP3A5 nonexpressors,0.77 ± 0.51 mL/h
same,"k(3,1) (secretion from efferent arteriole to renal epithelium)",[6]; CYP3A5 nonexpressors,1800 ± 1734 mL/h
same,fub (exchangeable fraction of tacrolimus in blood during glomerular filtration),[6]; CYP3A5 nonexpressors,0.011 ± 0.006%
same,in vivo fub′ (exchangeable fraction in blood) estimated from modeling,[6]; all subjects,0.012 ± 0.011%
same,Kp,[6]; CYP3A5 expressors,12.1 ± 0.3
same,Kp,[6]; CYP3A5 nonexpressors,23.4 ± 0.04
same,"Kp,kidney in CYP3A5 expressors as % of that calculated for nonexpressors",[6]; steady-state tissue-to-blood partitioning ratio,~50%
same,fraction unbound,[7],0.00078 ± 0.00026
same,CLurinary (based on AUCblood),[1]; CYP3A5 expressors (N=12),2.01 ± 0.57 mL/h
same,CLurinary (based on AUCplasma),[1]; CYP3A5 expressors (N=12),50.15 ± 13.67 mL/h
same,CLurinary (based on AUCblood),[1]; CYP3A5 nonexpressors (N=12),3.15 ± 1.69 mL/h
same,CLurinary (based on AUCplasma),[1]; CYP3A5 nonexpressors (N=12),97.71 ± 59.89 mL/h
same,CLurinary/eGFR (based on AUCblood),[1]; CYP3A5 expressors (N=12),0.028 ± 0.012%
same,CLurinary/eGFR (based on AUCplasma),[1]; CYP3A5 expressors (N=12),0.58 ± 0.28%
same,total amount of tacrolimus excreted in urine as unchanged drug over 96 hours,[1]; CYP3A5 expressors,271.6 ± 147.4 ng
same,CLurinary/eGFR (based on AUCblood),[1]; CYP3A5 nonexpressors (N=12),0.048 ± 0.032%
same,CLurinary/eGFR (based on AUCplasma),[1]; CYP3A5 nonexpressors (N=12),1.48 ± 1.10%
same,total amount of tacrolimus excreted in urine as unchanged drug over 96 hours,[1]; CYP3A5 nonexpressors,642.6 ± 349.6 ng
same,"mean apparent urinary tacrolimus clearance, lower in CYP3A5 expressors compared to nonexpressors",[1]; based on blood AUC,36%
same,"mean apparent urinary tacrolimus clearance, lower in CYP3A5 expressors compared to nonexpressors",[1]; based on plasma AUC,49%
same,AUC0–96 Difference (%),[1]; expressors vs nonexpressors,−35.2%
same,AUC0–inf Difference (%),[1]; expressors vs nonexpressors,−36.5%
same,CL/F Difference (%),[1]; expressors vs nonexpressors,54.8%
same,CLurinary (based on AUCblood) Difference (%),[1]; expressors vs nonexpressors,−36.2%
same,CLurinary (based on AUCplasma) Difference (%),[1]; expressors vs nonexpressors,−48.7%
same,CLurinary/eGFR (based on AUCblood) Difference (%),[1]; expressors vs nonexpressors,−41.7%
same,Clast Difference (%),[1]; expressors vs nonexpressors,−46.2%
same,"oral tacrolimus clearance (CL/F), fold higher in CYP3A5 expressors compared to nonexpressors","[1]; mean, expressors vs nonexpressors",1.6 fold
same,"Clast (blood concentration at 96 hours), fold higher in CYP3A5 nonexpressors compared to expressors",[1]; nonexpressors vs expressors,1.9 fold
same,"Kp,kid",[8],12.2
same,half-life,"[9]; t1/2, CYP3A5 expressors (N=12)",29.9 ± 4.8 h
same,half-life,"[9]; t1/2, CYP3A5 nonexpressors (N=12)",31.7 ± 4.3 h
same,concentration at 96 h,[9]; CYP3A5 expressors (N=12),0.2 ± 0.1 ng/mL
same,concentration at 96 h,[9]; CYP3A5 nonexpressors (N=12),0.4 ± 0.1 ng/mL
same,"hydroxylation activity, fold higher in CYP3A5*1/*3 than CYP3A5*3/*3 kidney microsomes",[5],18 fold
